According to PubChem BioAssay AID248 (DTP/NCI, 2004):
Inconclusive results and toxic doses are left out. Rule as the data show it: active = T/C of 150% or more; inactive = T/C below 125%.

System: L1210 leukemia ip in BDF1 mice, survival T/C
Experiment: NCI In Vivo Anticancer Drug Screen. Data for tumor model L1210 Leukemia (intraperitoneal) in B6D2F1 (BDF1) mice
Details: endpoint: mean survival time, higher = longer survival
How it was run: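 Antitumor effect is assessed in tumor-bearing animals. Survival in the compound arm is compared with a vehicle-dosed control arm and expressed as their quotient.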

[1] = dose: 100.0 mg/kg/injection, schedule: Q01DX001 (ip), vehicle: saline
[2] = dose: 200.0 mg/kg/injection, schedule: Q01DX001 (ip), vehicle: saline
[3] = dose: 100.0 mg/kg/injection, schedule: Q01DX001 (ip), vehicle: carboxymethylcellulose (CMC)
[4] = dose: 200.0 mg/kg/injection, schedule: Q01DX001 (ip), vehicle: carboxymethylcellulose (CMC)
[5] = dose: 400.0 mg/kg/injection, schedule: Q01DX001 (ip), vehicle: carboxymethylcellulose (CMC)
[6] = dose: 100.0 mg/kg/injection, schedule: Q04DX003 (ip), vehicle: saline with Tween-80
[7] = dose: 200.0 mg/kg/injection, schedule: Q04DX003 (ip), vehicle: saline with Tween-80
[8] = dose: 400.0 mg/kg/injection, schedule: Q04DX003 (ip), vehicle: saline with Tween-80
[9] = dose: 100.0 mg/kg/injection, schedule: Q04DX003 (ip), vehicle: gum acacia
[10] = dose: 200.0 mg/kg/injection, schedule: Q04DX003 (ip), vehicle: gum acacia
[11] = dose: 100.0 mg/kg/injection, schedule: Q01DX009 (ip), vehicle: saline
[12] = dose: 200.0 mg/kg/injection, schedule: Q01DX009 (ip), vehicle: saline
[13] = dose: 400.0 mg/kg/injection, schedule: Q01DX009 (ip), vehicle: saline
[14] = dose: 100.0 mg/kg/injection, schedule: Q04DX002 (ip), vehicle: saline with Tween-80
[15] = dose: 200.0 mg/kg/injection, schedule: Q04DX002 (ip), vehicle: saline with Tween-80
[16] = dose: 400.0 mg/kg/injection, schedule: Q04DX002 (ip), vehicle: saline with Tween-80
[17] = dose: 400.0 mg/kg/injection, schedule: Q01DX001 (ip), vehicle: saline
[18] = dose: 50.0 mg/kg/injection, schedule: Q01DX009 (ip), vehicle: saline with Tween-80
[19] = dose: 100.0 mg/kg/injection, schedule: Q01DX009 (ip), vehicle: saline with Tween-80
[20] = dose: 200.0 mg/kg/injection, schedule: Q01DX009 (ip), vehicle: saline with Tween-80
[21] = dose: 400.0 mg/kg/injection, schedule: Q01DX009 (ip), vehicle: saline with Tween-80

Measured: T/C

CNNP1(=O)OCC(C)([N+](=O)[O-])CO1 (configuration not stated)
inactive: [1] 101 % of control | [2] 101 % of control

CCCCN(C)/N=N/c1nc[nH]c1C(=O)OCC
inactive: [3] 96 % of control | [4] 109 % of control | [5] 124 % of control

CC1(C)OC(CI)C(COS(C)(=O)=O)O1 (configuration not stated)
inactive: [6] 114 % of control | dose: 115.0 mg/kg/injection, schedule: Q01DX001 (ip), vehicle: steriod suspending solution 97 % of control | dose: 173.0 mg/kg/injection, schedule: Q01DX001 (ip), vehicle: steriod suspending solution 90 % of control | [7] 105 % of control | [8] 111 % of control

CC1(C(N)=O)OCCO1
inactive: dose: 100.0 mg/kg/injection, schedule: Q04DX003 (ip), vehicle: saline 103 % of control | dose: 200.0 mg/kg/injection, schedule: Q04DX003 (ip), vehicle: saline 96 % of control | dose: 400.0 mg/kg/injection, schedule: Q04DX003 (ip), vehicle: saline 100 % of control

Clc1ccc(-c2oc(-c3ccc(Cl)cc3)c3c2CC=CC3)cc1
inactive: [9] 93 % of control | [10] 106 % of control | dose: 400.0 mg/kg/injection, schedule: Q04DX003 (ip), vehicle: gum acacia 97 % of control

ON=C1CCC(CC2CCCCC2)CC1 (configuration not stated)
inactive: [6] 95 % of control | [7] 100 % of control | [8] 101 % of control

CCOC1=C(C)C(=O)C1C (configuration not stated)
inactive: [11] 111 % of control | [12] 101 % of control | [13] 113 % of control

O=C1c2ccccc2C(=O)N1CNc1ccccc1/C(=N/Nc1ccc([N+](=O)[O-])cc1[N+](=O)[O-])c1ccccc1
inactive: [14] 91 % of control | [15] 91 % of control | [16] 94 % of control

O=[N+]([O-])c1ccc(\C=C/C=C/C=C/C2(CCl)OCCO2)cc1
inactive: dose: 100.0 mg/kg/injection, schedule: Q01DX001 (ip), vehicle: saline with Tween-80 91 % of control | dose: 200.0 mg/kg/injection, schedule: Q01DX001 (ip), vehicle: saline with Tween-80 87 % of control

Nc1nc(N)c(N=O)c(=O)[nH]1
inactive: [1] 105 % of control | dose: 100.0 mg/kg/injection, schedule: Q01DX009 (ip), vehicle: Klucel (hydroxypropylcellulose) (HPC) 99 % of control | [2] 95 % of control | dose: 200.0 mg/kg/injection, schedule: Q01DX009 (ip), vehicle: Klucel (hydroxypropylcellulose) (HPC) 100 % of control | [17] 94 % of control | dose: 400.0 mg/kg/injection, schedule: Q01DX009 (ip), vehicle: Klucel (hydroxypropylcellulose) (HPC) 97 % of control

NC(=O)Nc1ccccc1-c1ccccc1
inactive: dose: 100.0 mg/kg/injection, schedule: Q04DX002 (ip), vehicle: Klucel (hydroxypropylcellulose) (HPC) 103 % of control | dose: 200.0 mg/kg/injection, schedule: Q04DX002 (ip), vehicle: Klucel (hydroxypropylcellulose) (HPC) 109 % of control | dose: 400.0 mg/kg/injection, schedule: Q04DX002 (ip), vehicle: Klucel (hydroxypropylcellulose) (HPC) 103 % of control

CCCCCCCCCCCCNc1ccc(S(=O)(=O)c2ccc(N)cc2)cc1
inactive: [14] 100 % of control | [15] 97 % of control | [16] 103 % of control

COC(=O)c1ccc(O)c([N+](=O)[O-])c1
inactive: [18] 103 % of control | [19] 94 % of control | [20] 89 % of control

CCSC(SCC)C(OC(=O)c1ccccc1)C(OC(=O)c1ccccc1)C(COC(=O)c1ccccc1)OC(=O)c1ccccc1 (configuration not stated)
inactive: [3] 102 % of control | [4] 102 % of control | [5] 96 % of control

CCOC(=O)C(C(C)=O)c1cc(NS(=O)(=O)c2ccccc2)ccc1O (configuration not stated)
inactive: [19] 95 % of control | [20] 96 % of control | [21] 93 % of control

CC(=O)OC1C(=O)C(C)(C)CN(C(C)(C)C)CC1(C)C (configuration not stated)
inactive: dose: 100.0 mg/kg/injection, schedule: Q01DX001 (ip), vehicle: saline sonified 102 % of control | dose: 200.0 mg/kg/injection, schedule: Q01DX001 (ip), vehicle: saline sonified 91 % of control | dose: 400.0 mg/kg/injection, schedule: Q01DX001 (ip), vehicle: saline sonified 90 % of control

CCN(CC)CCSSCCN(CC)CC
inactive: dose: 50.0 mg/kg/injection, schedule: Q01DX001 (ip), vehicle: saline 88 % of control | [1] 96 % of control

c1ccc(C[Si](Cc2ccccc2)Cc2ccccc2)cc1
inactive: [1] 105 % of control | [11] 88 % of control | [2] 90 % of control | [12] 88 % of control | [17] 104 % of control | [13] 90 % of control

O=C(CCl)NC(O)C(Cl)(Cl)Cl (configuration not stated)
inactive: dose: 1.8 mg/kg/injection, schedule: Q01DX009 (ip), vehicle: saline with Tween-80 100 % of control | dose: 3.7 mg/kg/injection, schedule: Q01DX009 (ip), vehicle: saline with Tween-80 98 % of control | dose: 7.5 mg/kg/injection, schedule: Q01DX009 (ip), vehicle: saline with Tween-80 102 % of control | dose: 75.0 mg/kg/injection, schedule: Q04DX003 (ip), vehicle: saline 101 % of control | dose: 150.0 mg/kg/injection, schedule: Q04DX003 (ip), vehicle: saline 101 % of control | dose: 300.0 mg/kg/injection, schedule: Q04DX003 (ip), vehicle: saline 87 % of control

CCCCSC(=O)C(O)c1ccccc1 (configuration not stated)
inactive: [1] 105 % of control | [2] 104 % of control | [17] 105 % of control

CNCCOCc1ccccc1
inactive: [1] 96 % of control | [2] 91 % of control

Ic1ccc(/C=C2\C=Cc3ccccc32)cc1
inactive: [3] 100 % of control | [4] 100 % of control | [5] 100 % of control

C(=C\n1ccnc1)/c1ccccc1
inactive: [9] 97 % of control | [10] 87 % of control

O=P(OCC(Br)CBr)(OCC(Br)CBr)OCC(Br)CBr (configuration not stated)
inactive: dose: 50.0 mg/kg/injection, schedule: Q04DX003 (ip), vehicle: Klucel (hydroxypropylcellulose) (HPC) 107 % of control | dose: 100.0 mg/kg/injection, schedule: Q04DX003 (ip), vehicle: Klucel (hydroxypropylcellulose) (HPC) 98 % of control | dose: 200.0 mg/kg/injection, schedule: Q04DX003 (ip), vehicle: Klucel (hydroxypropylcellulose) (HPC) 106 % of control | dose: 400.0 mg/kg/injection, schedule: Q04DX003 (ip), vehicle: Klucel (hydroxypropylcellulose) (HPC) 106 % of control

O=S(=O)(O)c1ccc(S)cc1
inactive: dose: 75.0 mg/kg/injection, schedule: Q01DX001 (ip), vehicle: other 117 % of control

CC1CCC2N(C1)CC1C3(O)CC4(O)C(CCC5C(=O)C(O)CCC54C)C3(O)CC(O)C1(O)C2(C)O (configuration not stated)
inactive: dose: 5.0 mg/kg/injection, schedule: Q01DX001 (ip), vehicle: saline 98 % of control | dose: 10.0 mg/kg/injection, schedule: Q01DX001 (ip), vehicle: saline 98 % of control | dose: 20.0 mg/kg/injection, schedule: Q01DX001 (ip), vehicle: saline 98 % of control

O=[N+]([O-])c1ccc(CN=NCc2ccc(Cl)cc2Cl)c(Cl)c1
inactive: [18] 90 % of control | [19] 100 % of control | [20] 100 % of control | [21] 95 % of control
